Laboratory results reported in patent US8574563B2 (Bristol-Myers Squibb Company, priority 2006, dated 2013).

What follows are compounds tested on HCV 1b-377-neo replicon cells (assay: HCV replicon assay, HCV 1b-377-neo replicon cells (1b FRET)). Details: Hepatitis C virus, HCV 1b-377-neo replicon cells; HCV 1b genotype; read-out: EC50 range against HCV 1b (Table 2, Range).
Type: cell-based, Hepatitis C virus genotype 1b
Summary of the method: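 Compounds tested in HCV genotype 1b-377-neo replicon cells with a FRET read-out. Cells resistant to a reference NS5A inhibitor through a Y2065H NS5A mutation were run alongside wild-type cells.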

SMILES	EC50
COC(=O)N[C@@H](C)C(=O)N1CCC[C@H]1c1ncc(-c2ccc(-c3ccc(-c4cnc([C@@H]5CCCN5C(=O)[C@H](C)NC(=O)OC)[nH]4)c(F)c3)cc2F)[nH]1 [Example D61, methyl ((1S)-2-((2S)-2-(5-(3,3,-difluoro-4′-(2-((2S)-1-(N-(methoxycarbonyl)-L-alanyl)-2-pyrrolidinyl)-1H-imidazol-5-yl)-4-biphenylyl)-1H-imidazol-2-yl)-1-pyrrolidinyl)-1-methyl-2-oxoethyl)carbamate]	0.001 to 0.999 nM
Cc1[nH]c([C@@H]2CCCN2C(=O)[C@@H](c2ccccc2)N(C)C)nc1-c1ccc(-c2ccc(-c3cnc([C@@H]4CCCN4C(=O)[C@@H](c4ccccc4)N(C)C)[nH]3)cc2)cc1 [Example E5, (1R)-2-((2S)-2-(4-(4′-(2-((2S)-1-((2R)-2-(dimethylamino)-2-phenylacetyl)-2-pyrrolidinyl)-1H-imidazol-4-yl)-4-biphenylyl)-5-methyl-1H-imidazol-2-yl)-1-pyrrolidinyl)-N,N-dimethyl-2-oxo-1-phenylethanamine]	0.001 to 0.999 nM
CCN(CC)[C@@H](C(=O)N1CCC[C@H]1c1ncc(-c2ccc(-c3ccc(-c4cnc([C@@H]5CCCN5C(=O)[C@@H](NC(=O)OC)C(C)C)[nH]4)cc3)cc2F)[nH]1)c1ccccc1 [Example D44, methyl ((1S)-1-(((2S)-2-(5-(4′-(2-((2S)-1-((2R)-2-(diethylamino)-2-phenylacetyl)-2-pyrrolidinyl)-1H-imidazol-5-yl)-3′-fluoro-4-biphenylyl)-1H-imidazol-2-yl)-1-pyrrolidinyl)carbonyl)-2-methylpropyl) carbamate]	0.001 to 0.999 nM
CCN(CC)[C@@H](C(=O)N1CCC[C@H]1c1ncc(-c2ccc(-c3ccc(-c4cnc([C@@H]5CCCN5C(=O)[C@H](Cc5c[nH]c6ccccc56)NC(=O)OC)[nH]4)cc3)cc2)[nH]1)c1ccccc1 [cj-101, methyl ((1S)-2-((2S)-2-(5-(4′-(2-((2S)-1-((2R)-2-(diethylamino)-2-phenylacetyl)-2-pyrrolidinyl)-1H-imidazol-5-yl)-4-biphenylyl)-1H-imidazol-2-yl)-1-pyrrolidinyl)-1-(1H-indol-3-ylmethyl)-2-oxoethyl)carbamate]	0.001 to 0.999 nM
CC[C@H](NC(=O)OC)C(=O)N1[C@@H]2C[C@@H]2C[C@H]1c1nc(-c2ccc(-c3ccc(-c4c[nH]c([C@@H]5C[C@H]6C[C@H]6N5C(=O)[C@H](CC)NC(=O)OC)n4)cc3)cc2)c[nH]1 [Example M133, dimethyl (4,4′-biphenyl-diylbis(1H-imidazole-4,2-diyl(1R,3S,5R)-2-azabicyclo[3.1.0]hexane-3,2-diyl((2S)-1-oxo-1,2-butanediyl)))biscarbamate]	0.001 to 0.999 nM
